Measurements: patent publication US9539303B2, “Treatment of Ras-expressing tumors” (Celgene Corporation, priority 2006, dated 2017)
“And” between values parts separate entries of the source, which are not always exact repeats. Equal entries are not always repeated.

What was measured:
[1] = test system: BxPC-3 human pancreatic tumor xenograft; experiment: BxPC-3 human pancreatic tumor xenograft tumor growth inhibition study (Example 3); type: in vivo, female nude mice (nu/nu); settings: for % TGI / Final tumor volume mean ± SEM: Day 29
Description: (Madison, Wis.). […] Tumor measurements were converted to cubic millimeter tumor volume using the formula^(5): […] TGI values for each treatment group are reported at study completion; these calculations are based on the final study day. […] Individual mice lacking palpable tumors were classified as undergoing complete regression (CR). Animals experiencing partial or complete tumor regressions were censored from TGI calculations. However, data from these animals was included in statistical analysis calculations. In addition, weight data from these animals was included in daily and final group calculations. Tumor Necrosis-Degree of tumor necrosis was rated at each tumor measurement using the following arbitrary index: […]

[2] = test system: c-Myc; experiment: Tissue biomarker immunoblotting of PANC-1 xenograft tumors: c-Myc; type: in vivo; settings: PANC-1 tumors at study completion; FK228 5 mg/kg Q4Dx3, gemcitabine 80 mg/kg Q3Dx4, or both; actin-normalized vs control
Method: Specimen Collection: […] Tumor xenograft tissue and serum specimens were obtained from in vivo studies performed by the Preclinical Research Laboratory at the completion of the experiments. […] Serum was obtained from whole blood and stored frozen at -70° C. Tissue Biomarkers: Tumor levels of acetylated histone-4, histone-4, […] were quantified by immunoblotting as described. Briefly, frozen tissue was pulverized under liquid nitrogen and homogenized in hypotonic lysis buffer. Small aliquots of the extracts were used for analysis of protein concentration by micro-BCA assay with bovine serum albumin as a protein standard. An equal amount of extracts containing about 20-50 μg protein was electrophoresed in SDS polyacrylamide gels. Proteins were transferred to ImmunoBlot PVDF membrane and were probed with appropriate primary and secondary antibodies. The chemiluminescence signal was captured by autoradiography, quantified by densitometry and expressed as a ratio of actin in each sample lane. For each biomarker, means and standard errors were calculated in each treatment group. […] Following quantitative analysis of biomarker levels in each sample, the results were normalized for b-actin and expressed as percentages of untreated controls. […]

[3] = Animal weight and drug toxicity, BxPC-3 study
Description: Model Information—Female nude mice (nu/nu) between 5 and 6 weeks of age weighing approximately 20 grams were obtained from Harlan, Inc. (Madison, Wis.). PANC-1, obtained from the ATCC, is a pancreas tumor cell line originating from a person^(1-2). BxPC-3, obtained from the American Type Culture Collection (ATCC), is a pancreas tumor cell line originating from a person^(3-4). PANC-1 Study: Animals were implanted subcutaneously (SC) by trocar with fragments of PANC-1 harvested from SC growing tumors in nude mice hosts. When tumors grew to approximately 135 cubic millimeters (mm^3) in size (17 days following implantation, animals were pair-matched by tumor size into treatment and control groups; each treatment group contained nine mice. BxPC-3 Study: Animals were implanted subcutaneously (SC) by trocar with fragments of BxPC-3 harvested from SC growing tumors in nude mice hosts. When tumors grew to approximately 85 cubic millimeters (mm^3) in size (19 days following implantation), animals were pair-matched by tumor size into treatment and control groups; each treatment group contained nine mice. Animals in both studies were ear-tagged and followed individually throughout the experiment.
Study Design and Dosing—Initial doses were administered on Day 1 following pair-matching; both experiments were carried out as tumor growth inhibition (TGI) studies. Animals were dosed intravenously (IV) via tail vein with FK228 once every four days for three treatments (Q4Dx3) or by intraperitoneal (IP) injection with gemcitabine once every three days for four treatments (Q3Dx4), either alone or in combination, at the doses listed below (Table 1). To serve as a negative control, FK228 vehicle (2% ethanol, 8% propylene glycol, 90% 0.9% saline) was injected on a Q4Dx3 schedule.
Animal Weights—Individual and group mean weights±SD and percent weight change through Day 25 (PANC-1) or Day 29 (BxPC-3) were recorded twice weekly until study completion beginning Day 1. Final group mean weights±SD and group nadir values are reported; weight data from individual animals experiencing technical or drug-related deaths was censored from final group calculations.
Moribundity/Mortality—Animals were observed twice weekly for general moribundity and daily for mortality. Animal deaths were assessed as drug-related or technical based on factors including gross observation and weight loss; reported animal death information includes type, number, and day of death for each group.

[4] = BxPC-3 study, FK228 2.5 mg/kg IV Q4Dx3
[5] = BxPC-3 study, FK228 2.5 mg/kg IV Q4Dx3, 2.5 mg/kg
[6] = BxPC-3 study, FK228 5 mg/kg IV Q4Dx3
[7] = BxPC-3 study, FK228 5 mg/kg IV Q4Dx3, 5 mg/kg

For `C/C=C1\NC(=O)[C@H]2CSSCC/C=C/[C@H](CC(=O)N[C@H](C(C)C)C(=O)N2)OC(=O)[C@H](C(C)C)NC1=O` [FK228, romidepsin], the “% TGI” value [1, 4] was “No TGI”, the “Final tumor volume mean ± SEM” value [1, 5] was 2440±643 mm^3 and the “% TGI” value [1, 6] was “No TGI”. For the same compound, the “Final tumor volume mean ± SEM” value [1, 7] was 2620±238 mm^3, the “Activity according to NCI standards” value [1, 4] was “inactive” and the Tumor necrosis [1, 4] was 2/9 animals reported mild tumor necrosis. The “#PR/CR” value [1, 5] was 0/9 and 0/0, the “Activity according to NCI standards” value [1, 6] was “inactive” and the Tumor necrosis [1, 6] was 2/9 animals reported mild tumor necrosis. The “#PR/CR” value [1, 7] was 0/9 and 0/0, the “calculated TGI values” ([1]; BxPC-3 study, at the evaluated doses and schedules) was “No tumor growth inhibition” and the “antitumor activity (overall conclusion)” value ([1]; wildtype ras BxPC-3, all evaluated doses) was “inactive”. The “extent of inhibition of c-Myc expression” value [2] was 50%, the “Final weight data % change” value ([3]; Day 29, FK228 2.5 mg/kg IV Q4Dx3) was “+10%” and the “Final weight data mean ± SD” value ([3]; Day 29, FK228 2.5 mg/kg IV Q4Dx3, 2.5 mg/kg) was 25±2 G. For the same compound, the “Final weight data % change” value ([3]; Day 29, FK228 5 mg/kg IV Q4Dx3) was “+7%”, the “Final weight data mean ± SD” value ([3]; Day 29, FK228 5 mg/kg IV Q4Dx3, 5 mg/kg) was 24±1 G and the “Weight nadir % change” value ([3]; FK228 2.5 mg/kg IV Q4Dx3) was −5%. For the same compound, the Weight nadir day ([3]; FK228 2.5 mg/kg IV Q4Dx3) was 11, the Drug deaths total ([3]; FK228 2.5 mg/kg IV Q4Dx3, 2.5 mg/kg) was 0/9 and 0 and the “Weight nadir % change” value ([3]; FK228 5 mg/kg IV Q4Dx3) was −15%. For the same compound, the Weight nadir day ([3]; FK228 5 mg/kg IV Q4Dx3) was 11 and the Drug deaths total ([3]; FK228 5 mg/kg IV Q4Dx3, 5 mg/kg) was 0/9 and 0.
